Test results published in paper PMC10487310, “Enzyme‐responsive macrocyclic metal complexes for biomedical imaging” (Bioengineering & Translational Medicine, 2022).
Like-named read-outs stand apart in the source and are kept apart here. Ends that are not written are not given here.

How the values were obtained:
[1] = Copper-64 chloride loading, radioactivity by dose calibrator; format: physicochemical; settings: sodium acetate buffer pH 5.0, 2 h at 80°C
Experimental: (§1) Metal ions are complexed with macrocyclam derivatives in acidic condition (Figure 2c). The lyophilized macrocyclam derivatives were dissolved in distilled water. A 100 nmol aliquot of NrMC or ErMC was mixed with gadolinium chloride (Sigma‐Aldrich) or radioactive copper‐64 chloride in sodium acetate buffer (pH 5.0) and incubated for 2 h at 80°C. Unloaded Gd was removed using a PD‐SpinTrap™ G‐25 column (GE Healthcare, Little Chalfont, UK). The loading amount of Gd in each sample was measured by inductively coupled plasma mass spectrometry (ICP‐MS, Varian 820‐MS; Varian, Palo Alto, CA, USA). Gd chelation consists of a reaction between the Gd^3+ and arsenazo III dye under acidic conditions to form a blue–purple complex. Radioactivity was measured using a dose calibrator (Biodex Medical Systems, Shirley, NY, USA).

[2] = system: SCC7 tumor; experiment: In vivo PET/CT imaging of tumor-bearing mice
Experimental: (§2) Five‐week‐old Balb/c or athymic nude mice (Raon Bio, Yongin, Republic of Korea) were used for in vivo experiments. All studies using animals conformed to the Guidelines for the Care and Use of Laboratory Animals of the Institute of Laboratory Animal Resources at Seoul National University (approved animal experimental protocol number, SNU‐190821‐5).
(§3) The biodistribution of macrocyclam derivatives was determined by MRI and positron emission tomography/computed tomography (PET/CT) scanning. Five‐week‐old female Balb/c nude mice were subcutaneously inoculated with 1 × 10^6 SCC7 cells on the dorsal left side. When tumor volumes reached 150 mm^3, samples were intravenously administered. For in vivo MRI, Gd@NrMC or Gd@ErMC was injected at a Gd dose of 0.7 mg/kg. The mice were monitored in vivo at different time points using an MRI scanner (Bruker‐Biospin) equipped with an animal‐imaging coil. For PET/CT imaging, ^64Cu@NrMC or ^64Cu@ErMC was injected at a ^64Cu dose of approximately 240 μCi/mouse, and the mice were monitored in vivo at different time point using a PET/CT scanner (Inveon microPET/CT scanner, Siemens Medical Solutions, Malvern, PA, USA).

[3] = system: 3T3‐L1 cells; experiment: MTT cell viability; format: cell-based; settings: 3T3 cells, 24 h treatment
Experimental: The viability of cells treated with macrocyclam derivatives was assessed by MTT and apoptosis detection assays, and by live/dead cell staining. The 3T3‐L1 cells were seeded onto 24‐well plates at a density of 1 × 10^5 cells per well for 24 h and the cells were treated with macrocyclam derivatives for 24 h. MTT (3‐(4,5‐dimethylthiazol‐2‐yl)‐2,5‐diphenyltetrazolium bromide) solution (final concentration, 500 μM) was added to each well and the cells incubated for 2 h. After aspiration of medium, the cells were dissolved in 200 μl dimethyl sulfoxide (DMSO; Sigma‐Aldrich). Formazan crystals generated by metabolically active cells were quantified by measuring optical density at 570 nm using a microplate reader (Tecan Group Ltd., Seestrasse, Mannedorf, Switzerland). Cell viability was analyzed by calculating the percent optical density of treated cells relative to control cells. Live and dead cell populations were determined using EZ‐view Live/Dead Cell Staining Kits (Biomax, Seoul, Republic of Korea). […] The absorbance of each well was measured at 490/545 nm using fluorescence microscopy (IX70; Olympus, Japan). Cell apoptosis was analyzed using a FACSCalibur flow cytometer (BD Biosciences, CA, USA) with annexin V staining. […] Cell surface expression was analyzed using a FACSCalibur flow cytometer (BD Biosciences), with the results analyzed using FlowJo software (BD Biosciences).

[4] = system: SCC7 tumor; format: in vivo, mice; settings: for tumor/normal tissue (TN) ratio: Gd 0.7 mg/kg, T1-weighted signal intensity
Experimental: as §2, §3

[5] = Gd loading of macrocyclam derivatives by ICP-MS; format: physicochemical; settings: gadolinium chloride in sodium acetate buffer pH 5.0, 2 h at 80°C, unloaded Gd removed on G-25 column
Experimental: as §1

[6] = T1 relaxivity, 7 T MRI; format: physicochemical; settings: 37°C, Gd 37, 75, 150 and 300 μM
Experimental: (§4) The size, zeta potential, and morphology of each macrocyclam derivative were determined. Size was measured using dynamic light scattering, and zeta potential was assessed by laser Doppler microelectrophoresis at an angle of 22°, with both size and zeta potential being measured using an ELS8000 instrument (Photal, Osaka, Japan). The relaxation times of Gd‐loaded materials were examined using a 7 T/20 MRI instrument (Bruker‐Biospin, Ettlingen, Germany) at 37°C. Each sample was serially diluted to Gd concentrations of 37, 75, 150, and 300 μM, and the T1‐weighted MR signal intensities of 200‐μl samples were determined. The relaxation rate, r1 (r1 = 1/T1), for each preparation was calculated from acquired images.

[7] = Hydrodynamic size by dynamic light scattering; format: physicochemical
Experimental: as §4

[8] = Zeta potential by laser Doppler microelectrophoresis; format: physicochemical
Experimental: as §4

[9] = Size stability of nanostructure in TDW, PBS or 10% serum; format: physicochemical; settings: size measured in TDW, PBS or 10% serum (Figure S1)
Experimental: Fig. S1. Serum stability of macrocyclic complex
Size of ErMC was measured in TDW, PBS, or 10% serum condition.

[10] = system: SCC7 cells; experiment: Cellular uptake, in vitro T1 MR imaging; format: cell-based, murine; settings: Gd 100 μM, 24 h
Experimental: (§5) Cellular uptake was assessed by in vitro MR imaging, ICP‐MS, and scanning electron microscopy combined with energy‐dispersive x‐ray spectroscopy (SEM/EDS) analysis. For in vitro MR imaging, murine squamous cell carcinoma SCC7 cells were seeded onto six‐well plates at a density of 3 × 10^5 cells per well. After 24 h, the cells were treated with Gadovist or macrocyclam derivatives at Gd concentrations of 100 μM for 24 h. MR images were obtained and analyzed using an MRI scanner (Bruker‐Biospin). To assess enzyme‐dependent cellular uptake, 3T3‐L1 cells were pretreated with various concentrations of MMP‐9 (Sigma‐Aldrich). For ICP‐MS analysis, the cells were washed and completely dissolved with 90% nitric acid (Sigma‐Aldrich). To quantify Gd taken up by cells, the dissolved cells were digested with 1 ml of aqua regia (HCl: HNO3 = 3: 1, m/m) at 130°C. The solutions were completely dried and redissolved in deionized water, and the amounts of Gd were measured by ICP‐MS (Varian 820‐MS). For SEM/EDS analysis, SCC7 cells were seeded in cover glass‐inserted 24‐well plates at a density of 2 × 10^5 cells per well, followed by treatment of the samples for 24 h. A field‐emission SEM system (Supra 55VP; Carl Zeiss, Oberkochen, Germany) was used for SEM imaging combined with EDS mapping.

[11] = system: SCC7 cells; experiment: Cellular uptake of Gd by ICP-MS; format: cell-based, murine; settings: Gd 100 μM, 24 h
Experimental: as §5

[12] = system: 3T3‐L1 cells; experiment: Enzyme-dependent cellular uptake of Gd by ICP-MS, MMP-spiked versus blank media; format: cell-based; settings: 3T3-L1 cells pretreated with MMP-9, ICP-MS
Experimental: as §5

[13] = system: SCC7 cells; experiment: SEM/EDS elemental mapping of treated cells; format: cell-based, murine; settings: 24 h
Experimental: as §5

[14] = In vivo safety, H&E histology of major organs; settings: Balb/c mice, intravenous, Gd 3.5 mg/kg, 1 week, n = 4 per group
Experimental: (§6) The in vivo safety of macrocyclam derivatives was determined by histological and serological analyses. Five‐week‐old Balb/c mice were intravenously administered with at Gd@NrMC or Gd@ErMC at a Gd dose of 3.5 mg/kg. Briefly, NrMC (470 nmol) or ErMC (650 nmol) was mixed with gadolinium chloride in sodium acetate buffer (pH 5.0) and incubated for 2 h at 80°C. Unloaded Gd was removed using a PD‐SpinTrap™ G‐25 column. The samples including 70 μg of Gd were intravenously administered to mice. After 1 week, animals (n = 4 per group) were euthanized, and their organs (heart, lung, liver, spleen, and kidney) and sera were collected for histopathological and biochemical evaluation. Extracted organs were fixed in 10% formalin solution for 24 h and embedded in paraffin. For hematoxylin and eosin staining, each organ section was immersed in filtered Harris hematoxylin for 10 s and then in eosin for 30 s. The stained slides were visualized using a Vectra 3.0 Automated Quantitative Pathology Imaging System (PerkinElmer, Hopkinton, MA, USA), and the images were analyzed using InForm v2.4.11. software (PerkinElmer). The serum concentrations of alanine aminotransferase (ALT), aspartate aminotransferase (AST), […] (ALP), blood urea nitrogen (BUN), and total bilirubin (TBIL) were measured using an automatic chemistry analyzer (DRI‐CEHM 3500s; Fujifilm, Kanagawa, Japan).

[15] = In vivo safety, serum biochemistry (ALT, AST, ALP, BUN, TBIL); settings: Balb/c mice, Gd 3.5 mg/kg, 1 week after injection, compared with untreated mice
Experimental: as §6

GGPLGVRGGGGG-OH [^64Cu@ErMC]
copper-64 chloride loading capacity [1]: 22.4% | percentage of injected 64Cu in tumors relative to 64Cu@NrMC-treated mice ([2]; 24 h post-dose): 2.9 fold | percentage of injected 64Cu in tumors relative to 64Cu@NrMC-treated mice ([2]; 48 h post-dose): 2 fold | PET signal in tumor tissue ([2]; intravenous, approximately 240 μCi/mouse, SCC7 tumor-bearing mice): enhanced signals

O=C([O-])CN1CCN(CC(=O)[O-])CCN([C@H](CO)[C@H](O)CO)CCN(CC(=O)[O-])CC1.[Gd+3] (racemic) [Gadovist, reference compound]
viability of cells (MTT) [3]: no effect | change of tumor/normal tissue (TN) ratio over time ([4]; 1 h to 24 h after intravenous injection): not enhanced over time

GGPLGVRGGGGG-OH [Gd@ErMC, Gd loaded into enzyme-responsive macrocyclam modified with a PEGylated MMP-cleavable peptide; self-assembled nanoparticles]
gadolinium loading capacity [5]: 29.3 ± 14.5 mol% | longevity relaxivity (r1) [6]: 33.4 mM⁻¹ s⁻¹ | hydrodynamic size [7]: 310.2 ± 50.2 nm | zeta potential [8]: slightly positive | nanostructure in physiological conditions [9]: maintained | T1 MRI signal of MMP-overexpressing cells [10]: higher for the Gd@ErMC group than for other groups | intracellular Gd concentration relative to Gd@NrMC-treated cells [11]: 32.2 fold | Gd accumulation in cells treated with MMP relative to blank media [12]: 7.2 fold | colocalization of Gd on the cell surface (EDS-SEM) [13]: bound to cell membranes | tumor/normal tissue (TN) ratio ([4]; 1 h after intravenous injection): 1.8 | tumor/normal tissue (TN) ratio ([4]; 24 h after intravenous injection): 3.4 | histology of heart, lungs, liver, spleen and kidneys [14]: no visible microscopically abnormal features | liver and kidney function enzyme levels in blood [15]: within normal range
